Measured values: PMC7004151, “Synthesis and Structure‐Activity Relationships of N‐(4‐Benzamidino)‐Oxazolidinones: Potent and Selective Inhibitors of Kallikrein‐Related Peptidase 6” (Chemmedchem, 2019)

Key:
[1] = target: T1, CYP2C9 (Homo sapiens, UniProt P11712); test: Fluorescence-based CYP inhibition, CYP bactosomes; type: in vitro ADME; conditions: read-out: CYP Inhibition IC50 2C9
T1 construct: purchased Cypex; host or cells: bacterial membranes (bactosomes)
Protocol: (§1) Fluorescence-based CYP Inhibition using recombinantly expressed CYP bactosomes: Fluorescence CYP inhibition studies were conducted at 37 °C in 96-well, flat-bottom, clear polystyrene plates. Incubation mixtures containing […] bactosomes (1000 pmol/mL, 10 mg/mL Cypex TM), fluorigenic substrate (Cypex TM) and 50 mM potassium phosphate buffer (pH 7.4) were prepared at the following final concentrations: CYP1A2, 5 pmol/mL+0.5 μM Ethoxyresorufin (ER); […] Bactosome control protein was included in reactions to give a final concentration of 0.025 mg/mL. Reaction times were verified to be within the limits of kinetics linearity. For each isoform, 220 μL of incubation mix was added to each well of a 96-well, flat-bottom, clear polystyrene plate. […] Reactions were initiated by the addition of 25 μL regenerating cofactor solution (23 mM Glucose-6-Phosphate, 2.2 mM NADP, 6 Units per ml Glucose-6-Phosphate Dehydrogenase (from Baker's yeast S. cerevisiae) in 2 % w/v NaHCO3, Sigma) and subsequent production of fluorescence metabolite measured at 1 min intervals over a 10 min period using a BMG Optima fluorescence detector (ER: Exc 530 nm, Em 590 nm, MFC: Exc 410 nm, Em 530 nm, CEC: Exc 410 nm, Em 530 nm, MAMC: Exc 405 nm, Em 460 nm, DEF: Exc 405 nm, Em 560 nm, 7BQ: Exc 485 nm, Em 530 nm). Fluorescence responses were adjusted to a percentage of uninhibited control before plotting against compound concentration and deriving the IC50 by fitting to a 4 parameter logistic regression model.

[2] = target: T2, CYP2C19 (Homo sapiens, UniProt P33261); test: Fluorescence-based CYP inhibition, CYP bactosomes; type: in vitro ADME; conditions: recombinantly expressed CYP bactosomes (EasyCYP), pH 7.4, probe 3-Cyano-7-Ethoxycoumarin (CEC), 25 μM, read-out: CYP Inhibition IC50 2C19
T2 construct: purchased Cypex; host or cells: bacterial membranes (bactosomes)
Protocol: as §1

[3] = target: T3, Human thrombin (Homo sapiens, UniProt P00734); test: Thrombin enzyme inhibition assay; type: biochemical; conditions: read-out: Thrombin pIC50 (converted)
T3 construct: Human thrombin was purchased from Biopur; purchased Biopur
Protocol: Human thrombin was purchased from Biopur. Human trypsin was purchased from Polymun Scientific. Human Factor Xa was purchased from Enzo Life Sciences. Thrombin (20 nM), trypsin (0.000015 %) or Factor Xa (10 nM) were assayed in a similar manner to the KLKs but were incubated with compound for 20 min at room temperature in assay buffer (50 mM Tris HCl, pH 7.6, 100 mM NaCl, 1 mg/ml CHAPS, 0.05 % bovine serum albumin (BSA), 1 mM dithiothreitol (DTT)) before the addition of 5 μM, 2.5 μM or 1.5 μM Rhodamine 110 substrate (Cambridge bioscience ltd) respectively. Fluorescence intensity was then read at ex/em 485/535 following incubation for 1 h at room temperature (thrombin and factor Xa) or 20 min (trypsin).

[4] = Microsomal intrinsic clearance, human microsomes; type: in vitro ADME
Protocol: Immediately, at time zero, then at 3, 6, 9, 15 and 30 min an aliquot (50 μL) of the incubation mixture was removed and mixed with acetonitrile (100 μL) to stop the reaction. Internal standard was added to all samples, the samples centrifuged to sediment precipitated protein and the plates then sealed prior to UPLC‐MS/MS analysis using a Quattro Premier XE (Waters Corporation, USA). XLfit (IDBS, UK) was used to calculate the exponential decay and consequently the rate constant (k) from the ratio of peak area of test compound to internal standard at each timepoint. The rate of intrinsic clearance (CLint) of each test compound was then calculated using the following calculation: CLint (mL/min/g liver)=k×V×Microsomal protein yield. Where V (mL/mg protein) is the incubation volume/mg protein added and microsomal protein yield is taken as 52.5 mg protein/g liver. Verapamil (0.5 μM) was used as a positive control to confirm acceptable assay performance.

[5] = Plasma stability assay; type: in vitro ADME, mouse
Protocol: Plasma stability assay: Test compound (10 μM) was incubated in pre‐warmed plasma at 37 °C (that is buffered to pH 7.4 in ratio of 70 : 30 plasma to buffer). Immediately, at time zero, then at 30, 60, 120, and 180 min, a 50 μL aliquot of the incubation mixture was removed and mixed with 200 μL acetonitrile containing Donepezil as the internal standard (50 ng/mL) to stop the reaction. The samples were centrifuged to sediment the precipitated protein and the plates then sealed prior to UPLC‐MS/MS analysis using a Quattro Premier XE (Waters Corporation, USA). XLfit (IDBS, UK) was used to calculate the exponential decay and consequently the rate constant (k) from the ratio of peak area of test compound to internal standard at each time point. The half‐life was calculated for each test compound from the rate by using the following calculation: t1/2=0.693/k

[6] = in vitro; conditions: female, CD1, mouse, plasma
Protocol: Plasma protein binding assay: Briefly, a 96 well equilibrium dialysis apparatus was used to determine the free fraction in plasma for each compound (HT Dialysis LLC, Gales Ferry, CT). Membranes (12–14 kDa cut‐off) were conditioned in deionized water for 60 minutes, followed by conditioning in 80 : 20 deionized water: ethanol for overnight at 4 °C and then rinsed in isotonic buffer before use. Female CD1 mouse plasma was removed from the freezer and allowed to thaw on the day of experiment. Thawed plasma was then centrifuged (Allegra X12‐R, Beckman Coulter, USA), spiked with test compound (final concentration 10 μg/mL), and 150 μL aliquots (n=6 replicate determinations) loaded into the 96‐well equilibrium dialysis plate. Dialysis vs isotonic buffer (150 μL) was carried out for 5 h in a temperature‐controlled incubator at 37 °C (Barworld scientific Ltd, UK) using an orbital microplate shaker at 100 rpm (Barworld scientific Ltd, UK). […] All samples were analyzed by UPLC‐MS/MS on a Quattro Premier XE Mass Spectrometer (Waters Corporation, USA). The unbound fraction was determined as the ratio of the peak area in buffer to that in plasma.

[7] = target: KLK4 (Homo sapiens, UniProt Q9Y5K2); test: KLK4 inhibition (selectivity); type: biochemical; conditions: read-out: KLK4 pIC50 (converted)
Description: Table 3 Activity of synthesized inhibitors against KLK6 and related proteases. | column: KLK4^a

T2 sequence (P33261 whole entry): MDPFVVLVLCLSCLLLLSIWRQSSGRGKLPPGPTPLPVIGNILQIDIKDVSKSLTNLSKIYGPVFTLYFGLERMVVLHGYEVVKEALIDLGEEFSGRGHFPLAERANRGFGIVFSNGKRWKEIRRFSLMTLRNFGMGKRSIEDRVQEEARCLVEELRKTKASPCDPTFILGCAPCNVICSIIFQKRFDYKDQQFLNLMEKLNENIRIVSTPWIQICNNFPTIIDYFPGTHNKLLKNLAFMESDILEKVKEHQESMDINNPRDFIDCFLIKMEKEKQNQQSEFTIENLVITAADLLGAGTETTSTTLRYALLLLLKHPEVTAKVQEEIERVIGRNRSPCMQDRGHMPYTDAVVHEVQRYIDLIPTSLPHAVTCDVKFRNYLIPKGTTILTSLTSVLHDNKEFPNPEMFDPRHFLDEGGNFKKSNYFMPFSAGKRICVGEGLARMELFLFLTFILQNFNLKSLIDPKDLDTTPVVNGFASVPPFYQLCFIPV
Chain of KLK4 (Q9Y5K2 31-254, species assumed): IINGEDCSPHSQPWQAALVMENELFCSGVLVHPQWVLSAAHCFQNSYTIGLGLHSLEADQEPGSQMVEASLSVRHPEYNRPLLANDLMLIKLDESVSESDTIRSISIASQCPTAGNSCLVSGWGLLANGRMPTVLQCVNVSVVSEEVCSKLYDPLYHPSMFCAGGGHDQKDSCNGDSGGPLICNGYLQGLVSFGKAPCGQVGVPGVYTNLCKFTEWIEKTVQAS
T1 sequence (P11712 whole entry): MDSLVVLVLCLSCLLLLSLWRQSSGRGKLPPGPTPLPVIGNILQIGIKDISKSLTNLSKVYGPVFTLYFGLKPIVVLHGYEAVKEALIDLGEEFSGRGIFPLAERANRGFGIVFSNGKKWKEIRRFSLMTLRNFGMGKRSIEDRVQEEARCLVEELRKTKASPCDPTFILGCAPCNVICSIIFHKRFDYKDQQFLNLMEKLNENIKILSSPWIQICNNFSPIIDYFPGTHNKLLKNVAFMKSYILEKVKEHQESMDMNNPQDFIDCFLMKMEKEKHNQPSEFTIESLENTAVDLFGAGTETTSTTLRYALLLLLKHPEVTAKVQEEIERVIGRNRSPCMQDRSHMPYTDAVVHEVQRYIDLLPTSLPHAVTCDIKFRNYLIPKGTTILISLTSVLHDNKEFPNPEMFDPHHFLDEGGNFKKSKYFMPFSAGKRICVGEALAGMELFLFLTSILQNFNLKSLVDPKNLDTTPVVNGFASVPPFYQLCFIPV

CC[C@H](NC(=O)[C@H]1CN(c2ccc(C(=N)N)cc2)C(=O)O1)c1cccc2ccccc12 [Compound 32, (5R)‐3‐(4‐carbamimidoylphenyl)‐N‐((S)‐1‐(naphthalen‐1‐yl)propyl)‐2‐oxooxazolidine‐5‐carboxamide]
IC50 [1]: > 10 µM | IC50 at 10 min [2]: 7.9 µM | IC50 [3]: > 20 µM | Human CLint [4]: 3.1 mL/min/g | stability in mouse plasma ([5]; over 3 h): no instability | half-life at 10 μM ([5]; pH 7.4, mouse plasma, 37 °C, read-out: Mouse Plasma Stability (t1/2)): > 3 h | fraction unbound at 5 h, 10 μg/mL [6]: 0.11 | IC50 [7]: 0.158 µM
